Here are results for eight compounds from patent US10653688B2, “6-(6-membered heteroaryl and aryl)isoquinolin-3-yl carboxamides and preparation and use thereof” (Samumed, LLC, priority 2017, dated 2020).

The EC50 is the midpoint of the concentration-response curve. What is called inhibition is the drop in the measured response relative to a control, in per cent.

SMILES strings stand for the structures. Where two headings read alike, the source gives them in different places. Some results are limits rather than exact numbers.

The target of one assay is recombinant GSK3β kinase (Homo sapiens (Human), UniProt P49841). The experiment in a line: GSK3β kinase assay (Ser/Thr 09 peptide Z-lyte, FRET).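 Note: FRET read-out as coumarin over fluorescein emission ratio, compounds incubated one hour at room temperature, IC50 from dose-response curve fit.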 In kind it is biochemical.
Sequence of recombinant GSK3β kinase (P49841 whole entry): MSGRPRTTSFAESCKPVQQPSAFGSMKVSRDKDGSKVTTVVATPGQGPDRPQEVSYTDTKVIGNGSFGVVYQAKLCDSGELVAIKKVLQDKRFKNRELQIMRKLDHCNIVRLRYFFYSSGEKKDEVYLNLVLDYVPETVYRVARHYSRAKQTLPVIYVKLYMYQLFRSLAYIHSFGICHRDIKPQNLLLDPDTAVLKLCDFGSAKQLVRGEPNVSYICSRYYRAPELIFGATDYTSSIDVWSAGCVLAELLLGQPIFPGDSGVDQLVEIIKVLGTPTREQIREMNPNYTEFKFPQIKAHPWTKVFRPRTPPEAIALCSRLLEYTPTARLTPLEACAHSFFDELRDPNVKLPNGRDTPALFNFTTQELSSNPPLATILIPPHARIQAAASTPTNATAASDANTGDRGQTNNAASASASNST
Assay [1] deals with Tau phosphorylation at Ser396 (pSer396) in SH-SY5Y cells. Put plainly: Tau phosphorylation at Ser396 (pSer396) cell assay, ELISA/western blot. In kind it is cell-based, human. To be noted: Homo sapiens; SH-SY5Y cells, overnight (16-18 h); read-out: pSer396 Tau EC50.
Assay [2] concerns SW480 colon carcinoma cells. Put plainly: Cell viability assay (CellTiter-Glo). In kind it is cell-based, human. The following applies: Homo sapiens; for EC50: 96 h, four days, CellTiter-Glo; for inhibition at 10 µM: read-out: percent inhibition at 10 μM (given for EC50 >10 μM), 10 μM. (In ATP-based viability assays light output follows the ATP content of the culture.)
Assay [3] deals with LL29 cells (primary human fibroblasts derived from IPF patients), α-smooth muscle actin. The experiment in a line: Inhibition of fibrotic process: TGF-β1-treated primary human fibroblasts, αSMA staining.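 For all read-outs here: controls were TGF-β1-stimulated wells with DMSO vehicle as the positive reference and cells given DMSO alone as the negative reference.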 In kind it is cell-based. The following applies: Homo sapiens, Fibroblast; for EC50: 96 h, TGF-β1 20 ng/mL, 4 days, % cells positive for αSMA.
The subject of assay [4] is secreted cytokines TNFα, IL-6 and KC-GRO in BV-2 cells (mouse microglial cells). Put plainly: Secreted cytokines in lipopolysaccharide-stimulated mouse glial cell line. In kind it is cell-based. To be noted: LPS 250 ng/mL 5 hours, table does not say which cytokine. The gist of the method:
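BV-2 cells seeded at 35,000/well were pretreated overnight with compound (10 μM to 4.6 nM final), then stimulated 5 h with 250 ng/mL E. coli O111:B4 LPS. Supernatant TNFα, IL-6 and KC-GRO were quantified by electrochemiluminescence against standard curves (pg/mL) to fit EC50. Cytotoxicity was checked by CellTiter-Glo ATP read-out.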

In assay [5] the target is recombinant DYRK1A kinase (Homo sapiens (Human), UniProt Q13627). Put plainly: DYRK1A kinase assay (Ser/Thr 18 peptide Z-lyte, FRET).
Method: Each compound was dissolved in DMSO as a 10 mM stock and used to prepare compound source plates.
This is a non-radioactive assay using fluorescence resonance energy transfer (FRET) between coumarin and fluorescein to detect kinase activity which is represented as a ratio of coumarin emission/fluorescein emission.
The mixture was allowed to incubate with the representative compounds for one hour at room temperature. All reactions were performed in duplicate. Unphosphorylated (“0% Control”) and phosphorylated (“100% control”) forms of Ser/Thr 18 served as control reactions. Additionally, an 11-point dose-response curve of Staurosporine (luM top) was run to serve as a positive compound control.
After incubation, Development Reagent A was diluted in Development Buffer then added to the reaction and allowed to further incubate for one hour at room temperature.
Dose-response curves were generated and inhibitory concentration (IC50) values were calculated using non-linear regression curve fit in the Dotmatics' Studies Software (Bishops Stortford, UK).
Assay [6] has as its system pT212Tau in Dyrk1a- and MAPT-overexpressing HEK293T cells. Put plainly: Tau phosphorylation at Threonine 212 (pT212Tau) sandwich ELISA in double transfected cells. The following applies: Homo sapiens, HEK-293T, read-out: Thr212 EC50 (μM). (In an ELISA, binding on a coated surface is turned into a signal by an enzyme label.)
Setting [7] is: GSK3β kinase, head says EC50, method says IC50, ATP 46 μM.
The mark [8] stands for this setting: DYRK1A kinase, head says EC50, method says IC50, ATP 30 μM.

For the compound `CN1CCC(C(=O)Nc2cc3cc(-c4cccnc4)ccc3cn2)CC1` [Compound 8, 1-Methyl-N-(6-(pyridin-3-yl)isoquinolin-3-yl)piperidine-4-carboxamide], the EC50 at recombinant GSK3β kinase (setting [7]) amounted to 652 nM; in assay [1], 795 nM; in assay [2], 3140 nM; in assay [3], 398 nM; in assay [4], 36 nM; in assay [5] (setting [8]), 2 nM. The 50% effective concentration (EC50) in assay [6] was 0.019 µM.

As for `O=C(CN1CCOCC1)Nc1cc2cc(-c3cccnc3)ccc2cn1` [Compound 10, 2-Morpholino-N-(6-(pyridin-3-yl)isoquinolin-3-yl)acetamide], the EC50 at recombinant GSK3β kinase (setting [7]) is 525 nM; in assay [1], 2900 nM; in assay [2], more than 10000 nM; in assay [3] it was more than 10000 nM; in assay [4] it was 75 nM; in assay [5] (setting [8]), 8 nM. Besides, the EC50 in assay [6] was found to be 0.046 µM. In addition, the inhibition at 10 µM in assay [2] is 15.4%; in assay [3] (read-out: percent inhibition at 10 μM (given for EC50 >10 μM), TGF-β1, αSMA, 10 μM), 6.2%.

Take `CN1CCN(CC(=O)Nc2cc3cc(-c4cccnc4)ccc3cn2)CC1` [Compound 11, 2-(4-Methylpiperazin-1-yl)-N-(6-(pyridin-3-yl)isoquinolin-3-yl)acetamide]: the EC50 was 1120 nM at recombinant GSK3β kinase (setting [7]); 5800 nM in assay [1]; more than 10000 nM in assay [2]; 3580 nM in assay [3]; 327 nM in assay [4]; 20 nM in assay [5] (setting [8]). Further, the EC50 in assay [6] is 2.5 µM. The inhibition at 10 µM in assay [2] was determined as 25.6%.

Consider `CN1CCCN(CC(=O)Nc2cc3cc(-c4cccnc4)ccc3cn2)CC1` [Compound 12, 2-(4-Methyl-1,4-diazepan-1-yl)-N-(6-(pyridin-3-yl)isoquinolin-3-yl) acetamide], for which the concentration for a half-maximal effect (EC50) on recombinant GSK3β kinase (setting [7]) is 722 nM; in assay [1] it was 2300 nM; in assay [2] it was more than 10000 nM; in assay [3] it was 1190 nM; in assay [4] it was 1000 nM; in assay [5] (setting [8]), 17 nM. Further, the EC50 in assay [6] is 0.284 µM. Besides, the inhibition at 10 µM in assay [2] came to 39.3%.

With `Cc1nccn1CC(=O)Nc1cc2cc(-c3cccnc3)ccc2cn1` [Compound 14, 2-(2-Methyl-1H-imidazol-1-yl)-N-(6-(pyridin-3-yl)isoquinolin-3-yl) acetamide], the EC50 on recombinant GSK3β kinase (setting [7]) was 111 nM; in assay [1] it was 1600 nM; in assay [2] it was more than 10000 nM; in assay [3] it was 2240 nM; in assay [4], 136 nM; in assay [5] (setting [8]) it was 7 nM. The EC50 in assay [6] came to 0.043 µM. In addition, in assay [2], the inhibition at 10 µM came to 47.6%.

Regarding `O=C(Cn1ccnc1)Nc1cc2cc(-c3cccnc3)ccc2cn1` [Compound 15, 2-(1H-Imidazol-1-yl)-N-(6-(pyridin-3-yl)isoquinolin-3-yl)acetamide], the EC50 on recombinant GSK3β kinase (setting [7]) came out at 97 nM; in assay [1], 1100 nM; in assay [2], 6440 nM; in assay [3] it was 1520 nM; in assay [4], 21 nM; in assay [5] (setting [8]), 5 nM. In addition, the concentration for a half-maximal effect (EC50) in assay [6] was 0.2 µM.

Turning to `CN1CCN(C[C@H]2CC[C@H](C(=O)Nc3cc4cc(-c5cncc(F)c5)ccc4cn3)CC2)CC1` [Compound 17, trans-N-(6-(5-Fluoropyridin-3-yl)isoquinolin-3-yl)-4-((4-methylpiperazin-1-yl)methyl)cyclohexane-1-carboxamide], the half-maximal effective concentration (EC50) turned out to be 974 nM at recombinant GSK3β kinase (setting [7]); 4600 nM in assay [1]; 3470 nM in assay [2]; 471 nM in assay [3]; 38 nM in assay [4]; 3 nM in assay [5] (setting [8]). Further, the EC50 in assay [6] stood at 0.004 µM.

For the compound `CN1CCC(C(=O)Nc2cc3cc(-c4cncc(F)c4)ccc3cn2)CC1` [Compound 19, N-(6-(5-Fluoropyridin-3-yl)isoquinolin-3-yl)-1-methylpiperidine-4-carboxamide], the EC50 on recombinant GSK3β kinase was 1800 nM; in assay [1], 9400 nM; in assay [2] it was more than 10000 nM; in assay [3] it was 1210 nM; in assay [4], 124 nM; in assay [5], 10 nM. Moreover, the EC50 in assay [6] worked out at 0.205 µM. Further, the inhibition at 10 µM in assay [2] stood at 42.8%.
